From US4456593A, “Ristocetin .psi.-aglycone as an antibacterial agent” (Abbott Laboratories, priority 1982, dated 1984)
“And” between values parts separate entries of the source, which are not always exact repeats. Equal entries are not always repeated.

How the values were obtained:
E. coli (J) = experiment: Anti-infective Test - Cure of Acute Mouse Bacterial Infection (mouse protection), E. coli; type: in vivo; details: E. coli (J) intraperitoneal infection in female Swiss albino mice; route I.V.; dosed 1 and 5 hours post-infection; observed seven days
Procedure: (§1) Anti-infective Test--Cure of Acute Mouse Bacterial Infection
(§2) To determine the ability of potential anti-microbial agents to cure mice of an otherwise lethal infection.
Bacterial strains used in this test have been previously tested and, if necessary, adapted to mice and are maintained on brain heart infusion (BHI) agar slants at 4° C. Tubes of BHI broth are inoculated from the slants and incubated for 18 hours at 37° C. Serial ten-fold dilutions of this culture are made in BHI broth. The bacterial suspensions used to infect mice are obtained by making the final ten-fold dilution in 5 percent aqueous hog gastric mucin (American Laboratories Incorporated). […]
Groups T1 through T4 are used to monitor the strength of the infection actually used in this experiment. […] These groups are observed for seven days, mortalities are recorded and used to determine the number of challenge LD50's (within ten-fold limits) present in the standard inoculum used to infect medicated groups of animals.
Groups T5 through T9 are infected intraperitoneally with the standard inoculum. […] The animals are observed for seven days and mortalities are recorded. […]
CD50's (the total dose, in mg./kg., required to cure half the animals) are calculated by standard statistical methods and are reported with 95 percent confidence limits where these are obtainable or annotated with PS (poor slope) where they are not. […]

S. aureus = experiment: Anti-infective Test - Cure of Acute Mouse Bacterial Infection (mouse protection), S. aureus; type: in vivo; details: for CD50 (curative dose50, total dose required to cure half the animals): dosed 1 and 5 hours post-infection, 95 percent confidence limits in brackets
Procedure: as §1, §2
Bacterial strains used in this test have been previously tested and, if necessary, adapted to mice and are maintained on brain heart infusion (BHI) agar slants at 4° C. Tubes of BHI broth are inoculated from the slants and incubated for 18 hours at 37° C. Serial ten-fold dilutions of this culture are made in BHI broth. The bacterial suspensions used to infect mice are obtained by making the final ten-fold dilution in 5 percent aqueous hog gastric mucin (American Laboratories Incorporated). Mice are infected by an intraperitoneal injection of 0.75 ml. of the resulting suspension. The dilution of test organism selected (standard inoculum) is based on prior experience with that organism and is usually 10-100-fold more concentrated than the LD50 dilution, i.e., that concentration which when administered as described above causes 50 percent mortalities.
The antimicrobial test substance is dissolved at the desired concentration in a suitable vehicle (sterile water, unless otherwise specified) and four serial, two-fold dilutions of this solution are made with the vehicle.
In dosing the animals, all mice are considered to weigh 20 grams. The volume administered is always 0.5 ml. at 1 and 5 hours post-infection (total of 1.0 ml.), with half of the total dose given at each time.
Administration of Test Substances:
The test substance may be administered by any of the following routes:
2. Subcutaneously, at the nape of the neck,
3. Intramuscularly in the thigh,
4. Intravenously in the tail vein.
Female Swiss albino mice weighing 18 to 20 grams are divided randomly into groups of ten animals and housed one group to a cage. Food (standard mouse pellets) and water are supplied ad lib throughout the test. All animals are sacrificed at the conclusion of the test.
Group T0 is neither infected nor treated, but is observed for seven days. If more than one mortality occurs in this group, the data will be reviewed to determine is there is cause to invalidate the test.
Groups T1 through T4 are used to monitor the strength of the infection actually used in this experiment. These groups are infected but untreated. Group T1 is infected with the standard inoculum, and groups T2 through T4 are infected with successive ten-fold dilutions of the organism prepared such that only the final dilution in each case is made with 5 percent aqueous hog gastric mucin. These groups are observed for seven days, mortalities are recorded and used to determine the number of challenge LD50's (within ten-fold limits) present in the standard inoculum used to infect medicated groups of animals.
Groups T5 through T9 are infected intraperitoneally with the standard inoculum. Each group is treated with one of the two-fold dilutions of the test substance by a specified route of administration at 1 hour and 5 hours post infection. The animals are observed for seven days and mortalities are recorded.
Further sets of five groups of animals are infected and treated in the same manner as groups T5 through T9 for each additional test substance studied.
CD50's (the total dose, in mg./kg., required to cure half the animals) are calculated by standard statistical methods and are reported with 95 percent confidence limits where these are obtainable or annotated with PS (poor slope) where they are not.
This test is performed in primary and secondary variations. […]

[1] = S. aureus (S) intraperitoneal infection in female Swiss albino mice, route I.V., observed seven days

Molecule	CD50 (curative dose50, total dose required to cure half the animals) (E. coli (J)) [mg/kg]	Percent Surviving Mice With Varying Drug Dose (S. aureus; S. aureus (S) infection in mice, route I.V., dose of this cell not printed as text) [%]	CD50 (curative dose50, total dose required to cure half the animals) (S. aureus; S. aureus (SC) intraperitoneal infection in female Swiss albino mice, route cell is a drawing (not readable))	CD50 (curative dose50, total dose required to cure half the animals) (S. aureus; [1])	CD50 (curative dose50, total dose required to cure half the animals) (S. aureus; S. aureus (S) intraperitoneal infection in female Swiss albino mice, route S.C., observed seven days)
COC(=O)[C@H]1NC(=O)[C@H]2NC(=O)[C@H](NC(=O)[C@@H]3NC(=O)[C@H]4NC(=O)[C@H](NC(=O)[C@H](N)c5ccc(O)c(c5)Oc5cc4cc(O)c5C)[C@H](O)c4ccc(cc4)Oc4cc3cc(c4O)Oc3ccc(cc3)[C@H]2O)c2ccc(O)c(c2)-c2c(O)cc(O)cc21 [Compound 2, Ristocetin aglycone]	50	90	2.7 (1.8-4.1) mg./kg.		
O--demethylristocetin aglycone [Compound 3]				9.3 (5.9-17.3) mg./kg.	
Ristocetin [Compound 1]	50			4.1 mg./kg. and 6.6 mg./kg. and 5.6 (4.2-7.5) mg./kg. and 6 mg./kg.	3.7 (2.4-5.7) mg./kg.
